21 molecules from PubChem BioAssay AID248 (DTP/NCI, 2004) can be followed below.

Inconclusive results and toxic doses are left out.

The test system of the experiment is L1210 leukemia ip in BDF1 mice, survival T/C. Put plainly: NCI In Vivo Anticancer Drug Screen. Data for tumor model L1210 Leukemia (intraperitoneal) in B6D2F1 (BDF1) mice. The note with it: endpoint: mean survival time, higher = longer survival. The method, boiled down: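 Antitumor effect is assessed in tumor-bearing animals. Survival in the compound arm is compared with a vehicle-dosed control arm and expressed as their quotient.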

[1] abbreviates: dose: 100.0 mg/kg/injection, schedule: Q01DX001 (ip), vehicle: saline.
The mark [2] stands for this setting: dose: 100.0 mg/kg/injection, schedule: Q04DX003 (ip), vehicle: saline with Tween-80.
[3] abbreviates: dose: 200.0 mg/kg/injection, schedule: Q01DX001 (ip), vehicle: saline.
Setting [4] is: dose: 200.0 mg/kg/injection, schedule: Q04DX003 (ip), vehicle: saline with Tween-80.
Setting [5] is: dose: 400.0 mg/kg/injection, schedule: Q01DX001 (ip), vehicle: saline.
The mark [6] stands for this setting: dose: 400.0 mg/kg/injection, schedule: Q04DX003 (ip), vehicle: saline with Tween-80.
The mark [7] stands for this setting: dose: 100.0 mg/kg/injection, schedule: Q01DX009 (ip), vehicle: Klucel (hydroxypropylcellulose) (HPC).
The mark [8] stands for this setting: dose: 100.0 mg/kg/injection, schedule: Q04DX003 (ip), vehicle: Klucel (hydroxypropylcellulose) (HPC).
[9] abbreviates: dose: 200.0 mg/kg/injection, schedule: Q01DX009 (ip), vehicle: Klucel (hydroxypropylcellulose) (HPC).
The mark [10] stands for this setting: dose: 200.0 mg/kg/injection, schedule: Q04DX003 (ip), vehicle: Klucel (hydroxypropylcellulose) (HPC).
Setting [11] is: dose: 400.0 mg/kg/injection, schedule: Q01DX009 (ip), vehicle: Klucel (hydroxypropylcellulose) (HPC).
Where [12] appears, read: dose: 400.0 mg/kg/injection, schedule: Q04DX003 (ip), vehicle: Klucel (hydroxypropylcellulose) (HPC).
Where [13] appears, read: dose: 100.0 mg/kg/injection, schedule: Q04DX003 (ip), vehicle: saline.
[14] abbreviates: dose: 200.0 mg/kg/injection, schedule: Q04DX003 (ip), vehicle: saline.
Where [15] appears, read: dose: 400.0 mg/kg/injection, schedule: Q04DX003 (ip), vehicle: saline.

`O=C(O)C(SCc1ccccc1)c1ccccc1` (stereo not given): the T/C under setting [1] was 91 % of control; the T/C under setting [2] was 95 % of control; the T/C under setting [3] was 98 % of control; the T/C under setting [4] is 95 % of control; the T/C under setting [5] was 92 % of control; the T/C under setting [6] is 101 % of control.

Take `CC[C@@]1(O)C[C@H](OC2CC(N(C)C)C(O)C(C)O2)c2c(O)c3c(c(O)c2[C@H]1OC1CC(N(C)C)C(O)C(C)O1)C(=O)c1cccc(O)c1C3=O` (stereo not given in full): for the setting “dose: 0.5 mg/kg/injection, schedule: Q01DX009 (ip), vehicle: saline”, the T/C was 110 % of control.

`Cc1ccc(C)c(NC(=O)NCc2ccccc2Cl)c1`: the T/C runs as follows: under setting [7], 103 % of control; under setting [8], 104 % of control; under setting [9], 101 % of control; under setting [10], 98 % of control; under setting [11], 93 % of control; under setting [12], 89 % of control.

For the molecule `COC(=O)c1cc([N+](=O)[O-])ccc1Br`, the T/C was 101 % of control under setting [2], 93 % of control under setting [4] and 104 % of control under setting [6].

As to `O=S(=O)(CCCCl)N1CCOCC1`, the T/C under setting [1] was 102 % of control; the T/C under setting [13] was 97 % of control; the T/C under setting [3] is 106 % of control; the T/C under setting [14] is 106 % of control; the T/C under setting [5] is 100 % of control; the T/C under setting [15] was 95 % of control.

For `O=C(c1ccccc1Cl)c1cccc2ccccc12`, the T/C is, setting by setting: under setting [13], 115 % of control; under setting [14], 100 % of control; under setting [15], 106 % of control.

As to `CC1(C)C(N2CCCCC2)CS1(=O)=O` (stereo not given), the T/C reads like this: (dose: 12.5 mg/kg/injection, schedule: Q01DX009 (ip), vehicle: saline sonified) 103 % of control; (dose: 25.0 mg/kg/injection, schedule: Q01DX009 (ip), vehicle: saline sonified) 98 % of control; (dose: 50.0 mg/kg/injection, schedule: Q01DX009 (ip), vehicle: saline sonified) 94 % of control.

As to `OCCN(CCO)c1cccc(C(F)(F)F)c1`, the T/C is 96 % of control (dose: 50.0 mg/kg/injection, schedule: Q01DX001 (ip), vehicle: saline); 100 % of control under setting [1]; 106 % of control under setting [3]; 96 % of control under setting [5].

Take `NC(=S)Nc1ccccc1Cl`: the T/C runs as follows: under setting [1], 103 % of control; under setting [3], 101 % of control.

`CC(=O)OCC1OC(NC(=O)N(CCCl)N=O)C(OC(C)=O)C(OC(C)=O)C1OC(C)=O` (stereo not given): the T/C runs as follows: (dose: 6.0 mg/kg/injection, schedule: Q01DX001 (ip), vehicle: saline with Tween-80) 246 % of control; (dose: 9.0 mg/kg/injection, schedule: Q01DX001 (ip), vehicle: saline with Tween-80) 342 % of control; (dose: 13.0 mg/kg/injection, schedule: Q01DX001 (ip), vehicle: saline with Tween-80) 428 % of control; (dose: 20.0 mg/kg/injection, schedule: Q01DX001 (ip), vehicle: saline with Tween-80) 393 % of control; (dose: 30.0 mg/kg/injection, schedule: Q01DX001 (ip), vehicle: saline with Tween-80) 324 % of control.

Turning to `Nc1cc(Nc2ccc(S(N)(=O)=O)cc2)nc(N)n1`, the T/C is, setting by setting: under setting [8], 93 % of control; under setting [10], 97 % of control; under setting [12], 93 % of control.

In the case of `NC(=O)C(NC(=O)c1ccc([N+](=O)[O-])cc1)SCc1ccccc1` (stereo not given), the T/C is 96 % of control (dose: 100.0 mg/kg/injection, schedule: Q04DX002 (ip), vehicle: gum acacia); 90 % of control (dose: 200.0 mg/kg/injection, schedule: Q04DX002 (ip), vehicle: gum acacia); 86 % of control (dose: 400.0 mg/kg/injection, schedule: Q04DX002 (ip), vehicle: gum acacia).

In the case of `O=C(O)COc1cc(Cl)cc(Cl)c1`, the T/C was 91 % of control (dose: 50.0 mg/kg/injection, schedule: Q04DX002 (ip), vehicle: other); 94 % of control (dose: 100.0 mg/kg/injection, schedule: Q04DX002 (ip), vehicle: other); 108 % of control (dose: 200.0 mg/kg/injection, schedule: Q04DX002 (ip), vehicle: other).

As for `O=C1C(Br)=C(N2CC2)C(=O)C(Br)=C1N1CC1`, the T/C (dose: 1.56 mg/kg/injection, schedule: Q04DX003 (ip), vehicle: saline) was 104 % of control; the T/C (dose: 3.12 mg/kg/injection, schedule: Q04DX003 (ip), vehicle: saline) was 109 % of control; the T/C (dose: 6.25 mg/kg/injection, schedule: Q04DX003 (ip), vehicle: saline) is 104 % of control; the T/C (dose: 12.5 mg/kg/injection, schedule: Q04DX003 (ip), vehicle: saline) was 106 % of control; the T/C (dose: 25.0 mg/kg/injection, schedule: Q04DX003 (ip), vehicle: saline) was 104 % of control; the T/C (dose: 50.0 mg/kg/injection, schedule: Q04DX003 (ip), vehicle: saline) is 103 % of control.

For `CCCCCCCCCCC(CCCCCC)C(=O)O` (stereo not given), the T/C was 95 % of control (dose: 100.0 mg/kg/injection, schedule: Q01DX001 (ip), vehicle: saline with Tween-80); 96 % of control (dose: 200.0 mg/kg/injection, schedule: Q01DX001 (ip), vehicle: saline with Tween-80); 90 % of control (dose: 400.0 mg/kg/injection, schedule: Q01DX001 (ip), vehicle: saline with Tween-80).

For `Cc1ccccc1N1CCN(CCC(=O)c2cc3ccccc3o2)CC1`, the T/C is, setting by setting: (dose: 5.0 mg/kg/injection, schedule: Q01DX009 (ip), vehicle: saline with Tween-80) 104 % of control; (dose: 9.5 mg/kg/injection, schedule: Q04DX003 (ip), vehicle: saline with Tween-80) 96 % of control; (dose: 10.0 mg/kg/injection, schedule: Q01DX009 (ip), vehicle: saline with Tween-80) 100 % of control; (dose: 18.0 mg/kg/injection, schedule: Q01DX001 (ip), vehicle: saline with Tween-80) 94 % of control; (dose: 19.0 mg/kg/injection, schedule: Q04DX003 (ip), vehicle: saline with Tween-80) 116 % of control; (dose: 20.0 mg/kg/injection, schedule: Q01DX009 (ip), vehicle: saline with Tween-80) 106 % of control. Also, the T/C (dose: 37.5 mg/kg/injection, schedule: Q01DX001 (ip), vehicle: saline with Tween-80) was 101 % of control.

On to `CC(=O)Nc1ccc(/C=N/Nc2c([N+](=O)[O-])cc(C)cc2[N+](=O)[O-])cc1`, for which the T/C by setting is: (dose: 100.0 mg/kg/injection, schedule: Q01DX009 (ip), vehicle: saline) 98 % of control; (dose: 200.0 mg/kg/injection, schedule: Q01DX009 (ip), vehicle: saline) 96 % of control; (dose: 400.0 mg/kg/injection, schedule: Q01DX009 (ip), vehicle: saline) 94 % of control.

Take `O=S(=O)(c1ccccc1)C(Br)c1ccc(F)cc1` (stereo not given): the T/C by setting is: (dose: 100.0 mg/kg/injection, schedule: Q04DX002 (ip), vehicle: Klucel (hydroxypropylcellulose) (HPC)) 97 % of control; (dose: 200.0 mg/kg/injection, schedule: Q04DX002 (ip), vehicle: Klucel (hydroxypropylcellulose) (HPC)) 105 % of control; (dose: 400.0 mg/kg/injection, schedule: Q04DX002 (ip), vehicle: Klucel (hydroxypropylcellulose) (HPC)) 101 % of control.

Regarding `O/N=C/c1c(I)cc(I)c(O)c1I`, the T/C was 101 % of control under setting [7], 106 % of control under setting [9] and 90 % of control under setting [11].

Regarding `COC(=O)c1ccc2c3c(ccc(C(=O)OC)c13)C=C2`, the T/C was 102 % of control under setting [1], 94 % of control under setting [3] and 95 % of control under setting [5].

For the molecule `O=S(=O)(O)OC1CCCC1S(=O)(=O)O` (stereo not given), the T/C by setting is: (dose: 50.0 mg/kg/injection, schedule: Q01DX001 (ip), vehicle: carboxymethylcellulose (CMC)) 96 % of control; (dose: 100.0 mg/kg/injection, schedule: Q01DX001 (ip), vehicle: carboxymethylcellulose (CMC)) 107 % of control; (dose: 200.0 mg/kg/injection, schedule: Q01DX001 (ip), vehicle: carboxymethylcellulose (CMC)) 107 % of control; (dose: 400.0 mg/kg/injection, schedule: Q01DX001 (ip), vehicle: carboxymethylcellulose (CMC)) 86 % of control.
